Measured values published in BindingDB's records for doi:10.1021/jm960510x (University of Camerino, 1996).
pKi: −log10 of the molar value.

Target: Alpha-1B adrenergic receptor (Mesocricetus auratus) (UniProt P18841)
Experiment: Compound was tested for binding affinity against cloned Alpha-1B adrenergic receptor from hamster smooth muscle using radioligand ([3H]prazosin) binding assay

Alpha-1B adrenergic receptor (Mesocricetus auratus), sequence (P18841 whole entry, looked up): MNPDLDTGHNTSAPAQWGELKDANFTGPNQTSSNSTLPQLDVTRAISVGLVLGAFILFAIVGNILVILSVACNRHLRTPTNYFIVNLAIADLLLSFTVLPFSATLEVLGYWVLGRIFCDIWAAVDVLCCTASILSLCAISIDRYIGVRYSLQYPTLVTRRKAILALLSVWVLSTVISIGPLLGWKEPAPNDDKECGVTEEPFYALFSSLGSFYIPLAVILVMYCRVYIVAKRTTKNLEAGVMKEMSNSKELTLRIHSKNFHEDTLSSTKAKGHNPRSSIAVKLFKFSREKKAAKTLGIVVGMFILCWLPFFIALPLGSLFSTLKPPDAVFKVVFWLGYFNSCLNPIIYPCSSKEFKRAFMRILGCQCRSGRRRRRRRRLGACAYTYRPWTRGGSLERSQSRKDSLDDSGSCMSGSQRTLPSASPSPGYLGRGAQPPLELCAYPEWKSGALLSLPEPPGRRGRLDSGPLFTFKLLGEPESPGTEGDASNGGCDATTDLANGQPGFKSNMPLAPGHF

| pKi | Compound |
| --- | --- |
| 9.16 | COc1cc2nc(N3CCN(C(=O)c4ccco4)[C@@H]4CCCC[C@@H]43)nc(N)c2cc1OC |
| 9.23 | COc1cc2nc(N3CCN(C(=O)c4ccco4)C4CCCCC43)nc(N)c2cc1OC (stereo not drawn) [(Cyclazosin)[4-(4-Amino-6,7-dimethoxy-quinazolin-2-yl)-octahydro-quinoxalin-1-yl]-furan-2-yl-methanone] |
| 9.51 | COc1cc2nc(N3CCN(C(=O)c4ccco4)[C@H]4CCCC[C@H]43)nc(N)c2cc1OC [CYCLAZOSIN] |
